The values that follow are results of earlier work, collected in patent publication US6713504B2, “Antifungal molecule 2-(3,4-dimethyl-2,5-dihydro-1H-pyrrol-2-yl)-1-methylethyl pentanoate” (Council of Scientific & Industrial Research, priority 2002, dated 2004).

The conditions of the series: amphotericin B and its liposomal derivatives; reported by Zager 2000; cited from earlier work.

As for `C[C@@H]1[C@H](O)[C@@H](C)/C=C/C=C/C=C/C=C/C=C/C=C/C=C/[C@H](O[C@@H]2O[C@H](C)[C@@H](O)[C@H](N)[C@@H]2O)C[C@@H]2O[C@](O)(C[C@@H](O)C[C@@H](O)[C@H](O)CC[C@@H](O)C[C@@H](O)CC(=O)O[C@H]1C)C[C@H](O)[C@H]2C(=O)O` [amphotericin B], the CT50 is 4.0 to 64.0 µg/mL.
